The source made the active and inactive calls. The rule behind the calls is not given here.
Assays:
[1] = target: Fibroblast growth factor receptor 2 (Homo sapiens, UniProt P21802)
Description: Inhibition of FGFR2 (unknown orgin) using Tyr 04 peptide as substrate incubated for 1 hr in presence of 5 uM ATP by FRET based Z'-LYTE assay

[2] = target: Fibroblast growth factor receptor 4 (Homo sapiens, UniProt P22455); test: Inhibition of N-terminal 6His-tagged FGFR4 (unknown orgin) (445 to 753 residues) expressed in Rosetta (NEB) cells using Tyr 04 peptide as substrate incubated for 1 hr in presence of 150 uM ATP by FRET based Z'-LYTE assay
[3] = target: Fibroblast growth factor receptor 3 (Homo sapiens, UniProt P22607)
Description: Inhibition of FGFR3 (unknown orgin) using Tyr 04 peptide as substrate incubated for 1 hr in presence of 75 uM ATP by FRET based Z'-LYTE assay

[4] = target: Fibroblast growth factor receptor 1 (Homo sapiens, UniProt P11362)
Description: Inhibition of FGFR1 (unknown orgin) using Tyr 04 peptide as substrate incubated for 1 hr in presence of 25 uM ATP by FRET based Z'-LYTE assay

BaF3 [5] = test: cells; conditions: Mus musculus, BaF3, 72 h
MDA-MB-453 = test: cells; conditions: Homo sapiens, MDA-MB-453, 120 h
Description: Antiproliferative activity against human MDA-MB-453 cells assessed as inhibition of cell growth incubated for 5 days by SRB assay

Hep 3B2 = test: cells; conditions: Homo sapiens, Hep3B, 120 h
Description: Antiproliferative activity against human Hep3B cells assessed as inhibition of cell growth incubated for 5 days by SRB assay

NCI-H1299 = test: cells; conditions: Homo sapiens, NCI-H1299, 120 h
Description: Antiproliferative activity against human NCI-H1299 cells assessed as inhibition of cell growth incubated for 5 days by SRB assay

BaF3 [6] = test: Antiproliferative activity against mouse BAF3 cells expressing FGFR4 V550M mutant assessed as inhibition of cell growth incubated for 72 hrs by CCK8 assay; type: functional, cell-based; conditions: BaF3, 72 h
[7] = Antiproliferative activity against human JHH7 cells assessed as inhibition of cell growth incubated for 5 days by SRB assay; type: functional, cell-based; conditions: JHH7, 120 h
Huh-7 [8] = test: Antiproliferative activity against human Huh-7 cells assessed as inhibition of cell growth incubated for 5 days by SRB assay; type: functional, cell-based; conditions: Huh-7, 120 h
BaF3 [9] = test: Antiproliferative activity against mouse BAF3 cells assessed as inhibition of cell growth incubated for 72 hrs by CCK8 assay; type: functional, cell-based; conditions: BaF3, 72 h
BaF3 [10] = test: cells; conditions: Mus musculus, BaF3, 72 h; remark: listed apart in the source
[11] = target: Fibroblast growth factor receptor 4 (Mus musculus) (UniProt Q03142); test: Inhibition of wild type FGFR4 phosphorylation in mouse BAF3 cells at 30 nM incubated for 6 hrs by Western blot analysis; type: cell-based
[12] = target: Fibroblast growth factor receptor 4 (Mus musculus) (UniProt Q03142); test: Inhibition of wild type FGFR4 phosphorylation in mouse BAF3 cells assessed as reduction in FRS2 level at 3 to 90 nM incubated for 6 hrs by Western blot analysis; type: cell-based; conditions: dose 3-90 nM
[13] = target: Fibroblast growth factor receptor 4 (Mus musculus) (UniProt Q03142); test: Inhibition of wild type FGFR4 phosphorylation in mouse BAF3 cells assessed as reduction in MAPK level at 3 to 90 nM incubated for 6 hrs by Western blot analysis; type: cell-based; conditions: dose 3-90 nM
BaF3 [14] = test: Inhibition of FGFR4 V550L mutant signalling in mouse BAF3 cells at 3 to 90 nM incubated for 6 hrs by Western blot analysis; type: cell-based; conditions: dose 3-90 nM
Huh-7 [15] = test: Antitumor activity against human Huh-7 cells xenografted in ip dosed BALB/c nude mouse assessed as tumor growth inhibition administered twice daily for 17 continuous days and measured every 2 days; type: functional, organism-based; conditions: time 17.0 day, DDE = dose-dependent effect
Huh-7 [16] = test: Antitumor activity against human Huh-7 cells xenografted in BALB/c nude mouse assessed as tumor growth inhibition at 20 mg/kg, ip administered twice daily for 17 continuous days and measured every 2 days; type: functional; conditions: Huh-7, 408 h, time 17 day, read-out: TGI
Huh-7 [17] = test: Antitumor activity against human Huh-7 cells xenografted in BALB/c nude mouse assessed as tumor growth inhibition at 40 mg/kg, ip administered twice daily for 17 continuous days and measured every 2 days; type: functional; conditions: Huh-7, 408 h, time 17 day, read-out: TGI
[18] = Toxicity in BALB/c nude mouse xenografted with human Huh-7 cells assessed as loss of body weight at 20 to 40 mg/kg, […] administered twice daily for 17 days and measured every 2 days; type: organism-based; conditions: in vivo, 408 h, dose 20-40 mg/kg, time 17 day

Sequence of Fibroblast growth factor receptor 2 (P21802 whole entry, the tested form may be a part): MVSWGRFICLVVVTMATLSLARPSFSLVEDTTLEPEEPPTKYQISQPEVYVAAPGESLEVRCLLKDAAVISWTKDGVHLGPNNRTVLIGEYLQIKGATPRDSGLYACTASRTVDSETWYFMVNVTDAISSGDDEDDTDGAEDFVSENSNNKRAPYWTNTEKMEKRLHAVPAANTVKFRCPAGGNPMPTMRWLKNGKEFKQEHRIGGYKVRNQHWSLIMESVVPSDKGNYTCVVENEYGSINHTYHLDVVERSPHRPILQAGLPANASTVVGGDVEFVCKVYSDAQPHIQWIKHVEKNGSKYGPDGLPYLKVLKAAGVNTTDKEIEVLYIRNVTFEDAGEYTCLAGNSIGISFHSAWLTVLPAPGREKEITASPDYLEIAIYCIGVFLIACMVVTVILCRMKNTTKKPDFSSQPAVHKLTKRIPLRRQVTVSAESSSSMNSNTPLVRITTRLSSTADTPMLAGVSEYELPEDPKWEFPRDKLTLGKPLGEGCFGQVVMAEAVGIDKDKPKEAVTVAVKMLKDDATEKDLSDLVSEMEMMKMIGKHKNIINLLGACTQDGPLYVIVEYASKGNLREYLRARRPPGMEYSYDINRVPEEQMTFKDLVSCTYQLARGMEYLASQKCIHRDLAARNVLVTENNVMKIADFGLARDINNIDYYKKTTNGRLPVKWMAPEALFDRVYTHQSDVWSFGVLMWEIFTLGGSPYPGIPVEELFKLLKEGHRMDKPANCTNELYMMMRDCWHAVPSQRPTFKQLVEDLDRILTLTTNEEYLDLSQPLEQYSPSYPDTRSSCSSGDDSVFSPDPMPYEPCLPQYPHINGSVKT
Sequence of Fibroblast growth factor receptor 4 (Mus musculus) (Q03142 17-799 limits assumed): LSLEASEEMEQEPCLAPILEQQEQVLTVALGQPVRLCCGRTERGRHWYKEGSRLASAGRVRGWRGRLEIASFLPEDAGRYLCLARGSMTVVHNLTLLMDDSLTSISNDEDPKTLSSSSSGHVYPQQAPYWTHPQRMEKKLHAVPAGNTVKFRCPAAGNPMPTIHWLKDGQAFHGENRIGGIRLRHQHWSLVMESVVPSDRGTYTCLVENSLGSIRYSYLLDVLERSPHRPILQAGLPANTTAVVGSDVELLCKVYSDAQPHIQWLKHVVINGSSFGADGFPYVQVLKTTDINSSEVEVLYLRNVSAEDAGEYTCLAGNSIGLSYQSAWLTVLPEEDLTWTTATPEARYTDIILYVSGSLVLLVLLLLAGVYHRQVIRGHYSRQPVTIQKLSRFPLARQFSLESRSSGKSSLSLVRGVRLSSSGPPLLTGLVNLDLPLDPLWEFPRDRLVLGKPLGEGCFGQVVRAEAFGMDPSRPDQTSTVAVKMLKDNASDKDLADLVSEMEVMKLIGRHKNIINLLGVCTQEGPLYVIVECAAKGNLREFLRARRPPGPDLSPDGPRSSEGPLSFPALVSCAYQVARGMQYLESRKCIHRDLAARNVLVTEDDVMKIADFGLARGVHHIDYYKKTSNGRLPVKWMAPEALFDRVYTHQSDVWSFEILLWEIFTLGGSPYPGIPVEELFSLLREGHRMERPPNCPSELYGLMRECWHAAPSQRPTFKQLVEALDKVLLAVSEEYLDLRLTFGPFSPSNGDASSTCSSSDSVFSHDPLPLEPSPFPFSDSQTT
Sequence of Fibroblast growth factor receptor 4 (P22455 whole entry, the tested form may be a part): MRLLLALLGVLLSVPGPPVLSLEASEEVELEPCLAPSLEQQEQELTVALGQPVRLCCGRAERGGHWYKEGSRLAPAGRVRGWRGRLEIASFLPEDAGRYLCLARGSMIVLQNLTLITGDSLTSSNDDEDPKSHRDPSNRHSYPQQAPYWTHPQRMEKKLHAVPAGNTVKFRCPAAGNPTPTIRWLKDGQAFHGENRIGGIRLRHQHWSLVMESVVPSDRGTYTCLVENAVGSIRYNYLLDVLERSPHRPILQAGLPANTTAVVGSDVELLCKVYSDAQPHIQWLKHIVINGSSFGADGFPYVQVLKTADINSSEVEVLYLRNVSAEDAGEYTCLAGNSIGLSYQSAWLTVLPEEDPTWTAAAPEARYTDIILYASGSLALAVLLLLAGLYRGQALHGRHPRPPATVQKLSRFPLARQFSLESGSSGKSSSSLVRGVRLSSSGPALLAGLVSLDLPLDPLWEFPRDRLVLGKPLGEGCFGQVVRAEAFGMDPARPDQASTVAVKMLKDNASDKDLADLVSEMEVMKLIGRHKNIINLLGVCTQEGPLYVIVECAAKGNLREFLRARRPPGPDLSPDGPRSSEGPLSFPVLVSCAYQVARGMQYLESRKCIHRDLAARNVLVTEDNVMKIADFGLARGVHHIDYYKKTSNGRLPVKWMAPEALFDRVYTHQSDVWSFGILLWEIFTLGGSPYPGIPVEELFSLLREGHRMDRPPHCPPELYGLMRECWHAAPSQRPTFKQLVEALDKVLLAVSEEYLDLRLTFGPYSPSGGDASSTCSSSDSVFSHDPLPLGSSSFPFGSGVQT
Sequence of Fibroblast growth factor receptor 3 (P22607 whole entry): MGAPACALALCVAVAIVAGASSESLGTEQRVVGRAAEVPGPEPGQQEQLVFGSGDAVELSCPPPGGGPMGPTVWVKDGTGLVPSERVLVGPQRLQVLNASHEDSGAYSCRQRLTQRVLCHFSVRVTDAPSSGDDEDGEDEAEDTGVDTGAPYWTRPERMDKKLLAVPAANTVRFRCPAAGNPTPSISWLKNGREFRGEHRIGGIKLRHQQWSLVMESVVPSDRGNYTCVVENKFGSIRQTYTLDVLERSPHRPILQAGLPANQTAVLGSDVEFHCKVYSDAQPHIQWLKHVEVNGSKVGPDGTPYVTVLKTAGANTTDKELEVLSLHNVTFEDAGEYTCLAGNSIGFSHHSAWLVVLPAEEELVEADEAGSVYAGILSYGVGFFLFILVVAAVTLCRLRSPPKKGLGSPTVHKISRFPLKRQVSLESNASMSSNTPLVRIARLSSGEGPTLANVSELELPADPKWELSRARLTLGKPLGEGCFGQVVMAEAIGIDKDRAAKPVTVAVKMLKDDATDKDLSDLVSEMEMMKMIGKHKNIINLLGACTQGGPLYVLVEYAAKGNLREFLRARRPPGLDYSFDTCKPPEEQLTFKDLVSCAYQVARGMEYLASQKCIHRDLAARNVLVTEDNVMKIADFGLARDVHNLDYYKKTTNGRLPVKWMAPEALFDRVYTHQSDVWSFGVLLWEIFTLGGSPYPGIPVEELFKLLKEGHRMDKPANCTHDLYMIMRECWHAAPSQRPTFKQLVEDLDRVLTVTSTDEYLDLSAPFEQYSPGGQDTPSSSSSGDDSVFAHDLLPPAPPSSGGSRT
Sequence of Fibroblast growth factor receptor 1 (P11362 whole entry): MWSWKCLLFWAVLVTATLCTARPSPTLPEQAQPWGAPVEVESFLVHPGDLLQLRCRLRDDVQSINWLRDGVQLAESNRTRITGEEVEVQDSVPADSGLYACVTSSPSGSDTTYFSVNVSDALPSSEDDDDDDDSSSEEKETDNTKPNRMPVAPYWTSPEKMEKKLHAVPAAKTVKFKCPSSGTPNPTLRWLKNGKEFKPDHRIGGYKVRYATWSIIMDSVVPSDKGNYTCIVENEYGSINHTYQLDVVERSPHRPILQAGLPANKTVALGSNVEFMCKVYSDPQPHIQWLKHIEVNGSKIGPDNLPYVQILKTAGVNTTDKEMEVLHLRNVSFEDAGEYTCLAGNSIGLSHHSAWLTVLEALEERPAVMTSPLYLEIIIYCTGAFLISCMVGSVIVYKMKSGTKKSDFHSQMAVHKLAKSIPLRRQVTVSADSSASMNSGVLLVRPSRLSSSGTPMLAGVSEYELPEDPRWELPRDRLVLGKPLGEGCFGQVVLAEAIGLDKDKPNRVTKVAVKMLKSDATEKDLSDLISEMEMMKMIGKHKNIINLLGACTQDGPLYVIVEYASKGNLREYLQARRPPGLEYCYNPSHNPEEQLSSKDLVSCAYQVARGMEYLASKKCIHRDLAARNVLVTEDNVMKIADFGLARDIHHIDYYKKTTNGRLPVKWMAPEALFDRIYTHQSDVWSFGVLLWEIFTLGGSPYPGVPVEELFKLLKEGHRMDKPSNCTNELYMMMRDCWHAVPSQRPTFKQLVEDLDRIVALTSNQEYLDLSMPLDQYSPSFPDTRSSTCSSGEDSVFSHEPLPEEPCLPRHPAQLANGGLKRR

IC50 [1] [nM] | IC50 [3] [nM] | IC50 (BaF3 [5]) [nM] | IC50 (MDA-MB-453) [nM] | IC50 (Hep 3B2) [nM] | IC50 (NCI-H1299) [nM] | Compound | other results
> 10000 | – | – | – | – | – | C=CC(=O)Nc1ccccc1Nc1n[nH]c2ccc(OC(CC)c3c(Cl)cncc3Cl)cc12 (stereo unspecified) | –
> 10000 | > 10000 | – | – | – | – | C=CC(=O)Nc1ccccc1Nc1n[nH]c2ccc(OC(C)c3c(Cl)cccc3Cl)cc12 (stereo unspecified) | IC50 [2]: > 10000 nM
> 10000 | > 10000 | – | – | – | – | C=CC(=O)N[C@H]1CCCC[C@H]1Nc1n[nH]c2ccc(O[C@H](C)c3c(Cl)cncc3Cl)cc12 | IC50 [2]: > 10000 nM
> 10000 | > 10000 | 6.5 | 33 | 110 | 2760 | C=CC(=O)Nc1cc(N2CCN(S(C)(=O)=O)CC2)cc(F)c1Nc1c[nH]c2ccc(O[C@H](C)c3c(Cl)cncc3Cl)cc12 | IC50 [4]: > 10000 nM
> 10000 | > 10000 | 6 | 120 | 290 | 2530 | C=CC(=O)Nc1cc(N2CCN(C)CC2)ccc1Nc1n[nH]c2ccc(O[C@H](C)c3c(Cl)cncc3Cl)cc12 | –
> 10000 | > 10000 | – | – | – | – | C=CC(=O)Nc1cn(C)nc1Nc1n[nH]c2ccc(O[C@H](C)c3c(Cl)cncc3Cl)cc12 | –
949 | – | – | – | – | – | C=CC(=O)Nc1ccccc1Nc1n[nH]c2ccc(O[C@H](C)c3c(Cl)cncc3Cl)cc12 | –
> 10000 | > 10000 | 7.6 | 190 | 710 | 3800 | C=CC(=O)Nc1cccc(F)c1Nc1n[nH]c2ccc(O[C@H](C)c3c(Cl)cncc3Cl)cc12 | –
> 10000 | > 10000 | 3560 | 5190 | 10500 | 4880 | C=CC(=O)Nc1cccc(OC)c1Nc1n[nH]c2ccc(O[C@H](C)c3c(Cl)cncc3Cl)cc12 | –
> 10000 | > 10000 | 0.9 | 18 | 18 | 2060 | C=CC(=O)Nc1cc(N2CCN(C)CC2)cc(F)c1Nc1n[nH]c2ccc(O[C@H](C)c3c(Cl)cncc3Cl)cc12 | IC50 (BaF3 [6]): 3.7 nM; IC50 [7]: 28 nM; IC50 (Huh-7 [8]): 96 nM; IC50 (BaF3 [9]): > 1000 nM; IC50 [4]: > 10000 nM; IC50 (BaF3 [10]): 2.5 nM
> 10000 | > 10000 | > 2000 | 7590 | 16300 | 4580 | C=CC(=O)Nc1cccc(CC)c1Nc1n[nH]c2ccc(O[C@H](C)c3c(Cl)cncc3Cl)cc12 | IC50 [2]: > 10000 nM
> 10000 | – | – | – | – | – | C=CC(=O)Nc1ccccc1Nc1n[nH]c2ccc(OCc3c(Cl)cncc3Cl)cc12 | –
> 10000 | > 10000 | 9.5 | 64 | 220 | 3760 | C=CC(=O)Nc1cc(N2CCOCC2)cc(F)c1Nc1n[nH]c2ccc(O[C@H](C)c3c(Cl)cncc3Cl)cc12 | –
> 10000 | > 10000 | – | – | – | – | C=CC(=O)N1CC[C@@H](Nc2n[nH]c3ccc(O[C@H](C)c4c(Cl)cncc4Cl)cc23)C1 | –
> 10000 | > 10000 | 2 | 620 | 2700 | 9120 | C=CC(=O)Nc1cccc(C)c1Nc1n[nH]c2ccc(O[C@H](C)c3c(Cl)cncc3Cl)cc12 | –
> 10000 | > 10000 | 1990 | 15200 | 30200 | 12500 | C=CC(=O)Nc1ccc(OC)cc1Nc1n[nH]c2ccc(O[C@H](C)c3c(Cl)cncc3Cl)cc12 | IC50 [2]: > 10000 nM

IC50 [1] [nM] | IC50 [3] [nM] | IC50 (BaF3 [5]) [nM] | IC50 (MDA-MB-453) [nM] | IC50 (Hep 3B2) [nM] | IC50 (NCI-H1299) [nM] | Compound | other results
> 10000 | > 10000 | 20 | 210 | 330 | 4760 | C=CC(=O)Nc1cc(N(C)CCOC)cc(F)c1Nc1n[nH]c2ccc(O[C@H](C)c3c(Cl)cncc3Cl)cc12 | –
> 10000 | > 10000 | 1.7 | 10 | 47 | 1580 | C=CC(=O)Nc1cc(N2CCC(N3CCN(C)CC3)CC2)cc(F)c1Nc1n[nH]c2ccc(O[C@H](C)c3c(Cl)cncc3Cl)cc12 | IC50 [4]: > 10000 nM
> 10000 | > 10000 | 520 | 7550 | 15300 | 5170 | C=CC(=O)Nc1cccc(C2CC2)c1Nc1n[nH]c2ccc(O[C@H](C)c3c(Cl)cncc3Cl)cc12 | IC50 [2]: > 10000 nM
> 10000 | > 10000 | 1.5 | 7 | 50 | 1600 | C=CC(=O)Nc1cc(N2CCC(N(C)C)CC2)cc(F)c1Nc1n[nH]c2ccc(O[C@H](C)c3c(Cl)cncc3Cl)cc12 | IC50 [4]: > 10000 nM
> 10000 | > 10000 | 3 | 570 | 4440 | 6100 | C=CC(=O)Nc1cccc(Cl)c1Nc1n[nH]c2ccc(O[C@H](C)c3c(Cl)cncc3Cl)cc12 | –
238 | – | 2.4 | 62 | 160 | 1070 | C=CC(=O)Nc1cccc(Cl)c1Nc1ncc2cc(-c3c(Cl)c(OC)cc(OC)c3Cl)ccc2n1 | IC50 (BaF3 [6]): > 100 nM; IC50 [7]: 194 nM; IC50 (Huh-7 [8]): 48 nM; IC50 (BaF3 [9]): > 1000 nM; IC50 (BaF3 [10]): > 100 nM
> 10000 | > 10000 | 3.5 | 34 | 29 | 2970 | C=CC(=O)Nc1cc(N2CCC(N3CCOCC3)CC2)cc(F)c1Nc1n[nH]c2ccc(O[C@H](C)c3c(Cl)cncc3Cl)cc12 | IC50 (BaF3 [6]): 8.1 nM; IC50 [7]: 54 nM; IC50 (Huh-7 [8]): 72 nM; IC50 (BaF3 [9]): > 1000 nM; inhibition [11]: Active; inhibition [12]: Active; inhibition [13]: Active; inhibition (BaF3 [14]): Active; Activity (Huh-7 [15]): Dde; inhibition in vivo at 20 mg/kg (Huh-7 [16]): 25.9%; inhibition in vivo at 40 mg/kg (Huh-7 [17]): 46.9%; Activity [18]: Non-Toxic; IC50 [4]: > 10000 nM; IC50 (BaF3 [10]): 4.7 nM
> 10000 | > 10000 | 15 | 750 | 730 | 5310 | C=CC(=O)Nc1cc(N2CCOCC2)ccc1Nc1n[nH]c2ccc(O[C@H](C)c3c(Cl)cncc3Cl)cc12 | –
> 10000 | > 10000 | – | – | – | – | C=CC(=O)N[C@H]1CCOC[C@H]1Nc1n[nH]c2ccc(O[C@H](C)c3c(Cl)cncc3Cl)cc12 | IC50 [2]: > 10000 nM
4770 | – | – | – | – | – | C=CC(=O)Nc1ccccc1Nc1n[nH]c2cc(-c3c(Cl)c(OC)cc(OC)c3Cl)ccc12 | IC50 [2]: > 10000 nM
> 10000 | > 10000 | – | – | – | – | C=CC(=O)Nc1ccccc1Nc1n[nH]c2ccc(OC(C)c3c(Cl)ccc(F)c3Cl)cc12 (stereo unspecified) | –
> 10000 | > 10000 | 1.9 | 14 | 51 | 3000 | C=CC(=O)Nc1cc(N2CCN(C3COC3)CC2)cc(F)c1Nc1n[nH]c2ccc(O[C@H](C)c3c(Cl)cncc3Cl)cc12 | IC50 [4]: > 10000 nM
> 10000 | > 10000 | 0.2 | 110 | 220 | 3360 | C=CC(=O)Nc1cc(N2CCC(N3CCOCC3)CC2)ccc1Nc1n[nH]c2ccc(O[C@H](C)c3c(Cl)cncc3Cl)cc12 | IC50 [4]: > 10000 nM
> 10000 | > 10000 | – | – | – | – | CCC(=O)Nc1ccccc1Nc1n[nH]c2ccc(O[C@H](C)c3c(Cl)cncc3Cl)cc12 | –
> 10000 | > 10000 | – | – | – | – | C=CC(=O)N1CCC[C@@H](Nc2n[nH]c3ccc(O[C@H](C)c4c(Cl)cncc4Cl)cc23)C1 | IC50 [2]: > 10000 nM

Reference: ChEMBL document CHEMBL5154789 (J Med Chem, 2022)
